Where a name gives a salt, the structure may show the parent alone.
Key:
Escherichia coli KC-14 [1] = experiment: Effect on treatment of general infectious disease; format: in vivo, ddY male mice; details: KC14, 168 h, E. coli KC-14, 1.2×10^4 CFU/mouse i.p., oral one hour after infection, survival after one week
Protocol: Escherichia coli KC-14 (1.2×10^4 CFU/mouse)
(§1) The test microorganisms were subjected to standing culture in Trypto-Soya Agar "Nissui" (made by Nissui Seiyaku K.K., Japan) at 37° C. for 16 to 18 hours. The culture was then diluted with PBS (Dulbecco's phosphate buffered saline) and mixed with an equivalent amount of 10% (w/v) Mucin (BACTO MUCIN BACTERIOLOGICAL, made by Difco Co.) to prepare a microorganism solution. The thus prepared microorganism solution (0.5 ml each) was intraperitoneally innoculated to ddY male mice (4 weeks age, weighing 20-22 g, 5 mice in each group), to infect the animals. One hour after the infection, the compound (B) of the present invention dissolved in sterilized distilled water or ofloxacin suspended in 0.5% (w/v) aqueous sodium carboxymethyl cellulose solution was orally adiministered to mice.
(§2) The mice were daily observed for one week, and from the survival number of mice after one week, the 50% effective dose (ED50) was calculated by Weil method.

ddY male mice = experiment: Acute toxicity (LD50); format: in vivo; details: oral, ddY male mice fasted for 18 hours, Weil method
Protocol: The compound (B) of the present invention was dissolved in sterilized distilled water and the solution was orally administered to ddY male mice (5 weeks age, weighing 20 to 25 g, 5 mice in each group), which had been fasted for 18 hours.

[2] = test system: methicillin resistant Staphylococcus aureus; experiment: Minimum inhibitory concentration against clinically isolated methicillin resistant Staphylococcus aureus; format: cell-based
Protocol: The compound (B) was dissolved in sterilized distilled water, and ofloxacin in 0.1N aqueous potassium hydroxide, to prepare a solution of 5000 μg/ml in concentration each. The above solutions were then diluted with sterilized distilled water to prepare a standard solution with a concentration of the test compound: 1000 μg/ml each. The test was carried out by a method approved by Japan Society of Chemotherapy (ibidem) to measure minimum inhibitory concentration (MIC) against 54 strains of clinically isolated methicillin resistant Staphylococcus aureus, from which there were calculated a range of MIC (MICrange) of the test compound against these resistant strains, a minimum concentration for inhibiting the growth of the strains by 50% (MIC50) and a minimum concentration for inhibiting the growth of the strains by 90% (MIC90).

E. coli KC-14 = experiment: Effect on treatment of infectiousness of the genito-urinary tract; format: in vivo, ICR female mice; details: Escherichia coli, KC14, 48 h; E. coli KC-14, 5.6×10^5 CFU/mouse into urinary bladder; oral; not more than 10^4 living bacteria/1 g of kidney regarded as effective
Protocol: 2. Test microorganism and inoculum size E. coli KC-14 (5.6×10^5 CFU/mouse) 3. Method:
A microorganism solution (0.1 ml) prepared in the same manner as described in Experiment 3 was introduced into urinary bladder through urinary tract of ICR female mice (5 weeks age, weighing 20 to 22 g, 5 mice in each group), and then urinary meatus was clasped with clip for 4 hours to infect the animals. After taking off the clip, the compound (B) of the present invention dissolved in sterilized distilled water or ofloxacin suspended in 0.5% aqueous sodium carboxymethyl cellulose solution was orally administered to mice. Two days after the infection, mice kidneys were taken out and weighed, to which PBS (Dulbecco's phosphate buffered saline) was added and the mixture was homogenized. The homogenate was then diluted with PBS and inoculated onto a plate of modified Drigalski Agar (BTB lactose agar "Nissui", made by Nissui Seiyaku K.K., Japan) and cultured at 37° C. for 18 hours. The number of the colonies of infectious bacteria grown on the plate was counted. The number of living bacteria per 1 g of kidney was calculated from the number of colonies and the kidney weight. The living bacteria number/1 g of kidney of not more than 10^4 was regarded as effective and an effective dose for 50% mice (ED50) was calculated by Weil method.

[3] = test system: Klebsiella pneumoniae PCI 602; experiment: Minimum inhibitory concentration (MIC); format: cell-based; details: Klebsiella pneumoniae, PCI602, Klebsiella pneumoniae PCI 602, Gram -; read-out: Minimum inhibitory concentration (MIC)
Protocol: (§3) The compounds of the present invention (A, C, E, F, G, H and I) and ofloxacin as control were dissolved in 0.1N aqueous potassium hydroxide to prepare a solution of 5000 μg/ml in concentration. The compounds of the present invention (B, D and J) were dissolved in sterilized distilled water to prepare a solution of 5000 μg/ml in concentration. Each solution was diluted with sterilized distilled water to prepare a standard solution with a concentration of each test compound: 1000 μg/ml. The test was carried out by a method approved by Japan Society of Chemotherapy [cf. Chemotherapy, 29, 76-79 (1981)(TOKYO)].

[4] = test system: Serratia marcescens IAM 1184; experiment: Minimum inhibitory concentration (MIC); format: cell-based
Protocol: as §3

[5] = test system: Pseudomonas aeruginosa IFO 3445; experiment: Minimum inhibitory concentration (MIC); format: cell-based
Protocol: as §3

[6] = test system: Streptococcus faecalis IID 682; experiment: Minimum inhibitory concentration (MIC); format: cell-based
Protocol: as §3

[7] = test system: Pseudomonas aeruginosa E-2; experiment: Effect on treatment of general infectious disease; format: in vivo, ddY male mice; details: E2, 168 h, P. aeruginosa E-2, 1.6×10^4 CFU/mouse i.p., oral one hour after infection, survival after one week
Protocol: Pseudomonas aeruginosa E-2 (1.6×10^4 CFU/mouse)
as §1, §2

[8] = test system: Staphylococcus aureus IID 803; experiment: Effect on treatment of general infectious disease; format: in vivo, ddY male mice; details: IID803, 168 h, S. aureus IID 803, 1.0×10^6 CFU/mouse i.p., oral one hour after infection, survival after one week
Protocol: Staphylococcus aureus IID 803 (1.0×10^6 CFU/mouse)
as §1, §2

Shigella sonnei EW-33 = experiment: Minimum inhibitory concentration (MIC); format: cell-based; details: EW33; Shigella sonnei EW-33, Gram -
Protocol: as §3

[9] = test system: Proteus mirabilis IFO 3849; experiment: Minimum inhibitory concentration (MIC); format: cell-based; details: IFO3849; Proteus mirabilis IFO 3849, Gram -
Protocol: as §3

[10] = test system: Staphylococcus epidermidis IAM-1296; experiment: Minimum inhibitory concentration (MIC); format: cell-based; details: Staphylococcus epidermidis, IAM1296, Staphylococcus epidermidis IAM-1296, Gram +
Protocol: as §3

[11] = test system: Acinetobacter calcoaceticus AC 54; experiment: Minimum inhibitory concentration (MIC); format: cell-based; details: Acinetobacter calcoaceticus, AC54, Acinetobacter calcoaceticus AC 54, Gram -
Protocol: as §3

[12] = test system: Escherichia coli NIHJ JC-2; experiment: Minimum inhibitory concentration (MIC); format: cell-based; details: NIHJJC2; Escherichia coli NIHJ JC-2, Gram -
Protocol: as §3

[13] = test system: Citrobacter freundii NIHJ 10018-68; experiment: Minimum inhibitory concentration (MIC); format: cell-based; details: NIHJ10018; Citrobacter freundii NIHJ 10018-68, Gram -
Protocol: as §3

[14] = test system: Pseudomonas aeruginosa E-2; experiment: Minimum inhibitory concentration (MIC); format: cell-based; details: E2; Pseudomonas aeruginosa E-2, Gram -
Protocol: as §3

[15] = test system: Staphylococcus aureus FDA 209P JC-1; experiment: Minimum inhibitory concentration (MIC); format: cell-based; details: FDA209P; Staphylococcus aureus FDA 209P JC-1, Gram +
Protocol: as §3

[16] = test system: Salmonella typhimurium IID 971; experiment: Minimum inhibitory concentration (MIC); format: cell-based; details: Salmonella enterica, read-out: Minimum inhibitory concentration (MIC)
Protocol: as §3

Proteus vulgaris OX-19 = experiment: Minimum inhibitory concentration (MIC); format: cell-based; details: OX19; Proteus vulgaris OX-19, Gram -; read-out: Minimum inhibitory concentration (MIC)
Protocol: as §3

[17] = test system: Micrococcus luteus ATCC 9341; experiment: Minimum inhibitory concentration (MIC); format: cell-based; details: ATCC9341; Micrococcus luteus ATCC 9341, Gram +
Protocol: as §3

[18] = test system: Enterobacter aerogenes ATCC 13048; experiment: Minimum inhibitory concentration (MIC); format: cell-based; details: Klebsiella aerogenes, ATCC13048, Enterobacter aerogenes ATCC 13048, Gram -
Protocol: as §3

[19] = test system: Bacillus subtilis ATCC 6633; experiment: Minimum inhibitory concentration (MIC); format: cell-based; details: ATCC6633; Bacillus subtilis ATCC 6633, Gram +; read-out: Minimum inhibitory concentration (MIC)
Protocol: as §3

[20] = test system: Pseudomonas aeruginosa NCTC 10490; experiment: Minimum inhibitory concentration (MIC); format: cell-based; details: Pseudomonas aeruginosa, NCTC10490, Pseudomonas aeruginosa NCTC 10490, Gram -
Protocol: as §3

Escherichia coli KC-14 [21] = experiment: Minimum inhibitory concentration (MIC); format: cell-based; details: KC14; Escherichia coli KC-14, Gram -
Protocol: as §3

[22] = test system: Morganella morganii IFO 3848; experiment: Minimum inhibitory concentration (MIC); format: cell-based; details: IFO3848; Morganella morganii IFO 3848, Gram -
Protocol: as §3

Enterobacter cloacae 963 = experiment: Minimum inhibitory concentration (MIC); format: cell-based; details: Enterobacter cloacae 963, Gram -
Protocol: as §3

[23] = test system: Staphylococcus aureus IID 803; experiment: Minimum inhibitory concentration (MIC); format: cell-based; details: IID803; Staphylococcus aureus IID 803, Gram +; read-out: Minimum inhibitory concentration (MIC)
Protocol: as §3

**Q.** With `CN1CCN(c2c(F)cc3c(=O)c(C(=O)O)c4scc5n4c3c2OC5)CC1` [Compound (B), 9,1-Epoxymethano-7-fluoro-8-(4-methyl-1-piperazinyl)-5-oxo-5H-thiazolo[3,2-a]quinoline-4-carboxylic acid.hydrochloride] as the compound, how does the ED50 (Escherichia coli KC-14 [1]) read?
**A.** 1 mg/kg

**Q.** And the LD50 (ddY male mice)?
**A.** 1231 mg/kg

**Q.** What about the MIC ([2]; 54 strains of clinically isolated methicillin resistant Staphylococcus aureus) of the same compound?
**A.** 0.1 to 0.39 µg/mL

**Q.** What about the MIC50 ([2]; Staphylococcus aureus, minimum concentration for inhibiting the growth of the strains by 50%, 54 strains) of the same compound?
**A.** 0.2 µg/mL

**Q.** And the MIC90 ([2]; Staphylococcus aureus, minimum concentration for inhibiting the growth of the strains by 90%, 54 strains)?
**A.** 0.2 µg/mL

**Q.** What about the ED50 (E. coli KC-14) of the same compound?
**A.** 21.7 mg/kg

**Q.** And the MIC [3]?
**A.** 0.025 µg/mL

**Q.** And the “Minimum inhibitory concentration (MIC)” value ([4]; Serratia marcescens IAM 1184, Gram -)?
**A.** 0.39 µg/mL

**Q.** What about the “Minimum inhibitory concentration (MIC)” value ([5]; Pseudomonas aeruginosa IFO 3445, Gram -) of the same compound?
**A.** 1.56 µg/mL

**Q.** What about the “Minimum inhibitory concentration (MIC)” value ([6]; Streptococcus faecalis IID 682, Gram +) of the same compound?
**A.** 0.78 µg/mL

**Q.** And the ED50 [7]?
**A.** 17.7 mg/kg

**Q.** And the ED50 [8]?
**A.** 8.1 mg/kg

**Q.** Which MIC (Shigella sonnei EW-33) does the source give for `CCN1CCN(c2c(F)cc3c(=O)c(C(=O)O)c4scc5n4c3c2OC5)CC1` [Compound (J), 9,1-Epoxymethano-7-fluoro-8-(4-ethyl-1-piperazinyl)-5-oxo-5H-thiazolo[3,2-a]quinoline-4-carboxylic acid.hydrochloride.1/2hydrate] here?
**A.** 0.1 µg/mL

**Q.** What about the MIC [3] of the same compound?
**A.** 0.025 µg/mL

**Q.** What about the MIC [9] of the same compound?
**A.** 0.39 µg/mL

**Q.** What about the MIC [10] of the same compound?
**A.** 0.39 µg/mL

**Q.** What about the MIC [11] of the same compound?
**A.** 0.1 µg/mL

**Q.** What about the MIC [12] of the same compound?
**A.** 0.1 µg/mL

**Q.** And the MIC [13]?
**A.** 0.39 µg/mL

**Q.** What about the MIC ([4]; Serratia marcescens, IAM1184, Serratia marcescens IAM 1184, Gram -) of the same compound?
**A.** 0.39 µg/mL

**Q.** And the MIC [14]?
**A.** 1.56 µg/mL

**Q.** What about the MIC [15] of the same compound?
**A.** 0.2 µg/mL

**Q.** And the MIC [16]?
**A.** 0.05 µg/mL

**Q.** What about the MIC (Proteus vulgaris OX-19) of the same compound?
**A.** 0.05 µg/mL

**Q.** And the MIC [17]?
**A.** 3.13 µg/mL

**Q.** What about the MIC [18] of the same compound?
**A.** 0.1 µg/mL

**Q.** And the MIC [19]?
**A.** 0.1 µg/mL

**Q.** What about the MIC ([5]; Pseudomonas aeruginosa, IFO3445, Pseudomonas aeruginosa IFO 3445, Gram -) of the same compound?
**A.** 3.13 µg/mL

**Q.** What about the MIC ([6]; Enterococcus faecalis, IID682, Streptococcus faecalis IID 682, Gram +) of the same compound?
**A.** 0.78 µg/mL

**Q.** What about the MIC [20] of the same compound?
**A.** 0.78 µg/mL

**Q.** What about the MIC (Escherichia coli KC-14 [21]) of the same compound?
**A.** 0.1 µg/mL

**Q.** What about the MIC [22] of the same compound?
**A.** 0.1 µg/mL

**Q.** And the MIC (Enterobacter cloacae 963)?
**A.** 0.1 µg/mL

**Q.** And the MIC [23]?
**A.** 0.2 µg/mL
